Measured values published in US20230339981A1, “KRAS G12D MODULATING COMPOUNDS” (priority 2022, published 2023).

How the values were obtained:
GP2D (KRAS G12D) cells = assay: 2D cell viability assay (CellTiter-Glo); format: cell-based; conditions: GP2d, 96 h, 4 days
Summary of the method: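 Viability was read by CellTiter-Glo after 4 days at 37 °C of 2D culture of KRAS G12D GP2D cells (1000/well, RPMI, 10% FBS) on pre-spotted threefold compound dilutions. EC50 was fitted with a sigmoidal dose-response model as the point of half-maximal luminescence loss.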

GDP-loaded KRAS G12D = GDP-loaded KRAS G12D (Homo sapiens (Human), UniProt P01116, G12D); assay: KRAS G12D (GDP) biochemical assay (TR-FRET probe displacement); format: binding; conditions: 2 hours
GDP-loaded KRAS G12D, sequence (P01116-2 other isoform, or with tags, fused parts or gaps G12D): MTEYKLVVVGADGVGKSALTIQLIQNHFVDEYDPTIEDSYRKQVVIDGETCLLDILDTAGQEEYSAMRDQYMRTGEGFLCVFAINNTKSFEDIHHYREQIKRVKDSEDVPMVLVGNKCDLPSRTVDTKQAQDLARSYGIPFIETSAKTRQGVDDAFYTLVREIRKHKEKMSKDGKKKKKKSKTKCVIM
Summary of the method: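 TR-FRET probe displacement: 1:3 DMSO serial dilutions pre-incubated 30 min with GDP-bound KRAS G12D, followed by Eu-streptavidin/probe for 2 h at room temperature (Hepes pH 7.4, NaCl, MgCl2, Tween-20 buffer). IC50 defined as concentration halving TR-FRET ratio, from sigmoidal dose-response fit.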

| SMILES | EC50 (GP2D (KRAS G12D) cells) [nM] | IC50 (GDP-loaded KRAS G12D) [nM] |
| --- | --- | --- |
| C#Cc1c(F)ccc2cccc(-c3nc4c5c(nc(OC[C@@]67CCCN6C[C@H](F)C7)nc5c3F)N3C[C@H]5CC[C@H](N5)[C@H]3CCCC4)c12 [Example 188, (7aR,8S,11R)-2-(8-ethynyl-7-fluoronaphthalen-1-yl)-1-fluoro-14-(((2R,7aS)-2-fluorotetrahydro-1H-pyrrolizin-7a(5H)-yl)methoxy)-4,5,6,7,7a,8,9,10,11,12-decahydro-3,12a,13,15,16-pentaaza-8,11-methanocyclohepta[4,5]cyclonona[1,2,3-de]naphthalene] | 100 | 0.2 |
| C#Cc1c(F)ccc2cc(O)cc(-c3nc4c5c(nc(OCC6(CN7CCC(C(F)(F)F)CC7)CC6)nc5c3F)N3C[C@H]5CC[C@H](N5)[C@H]3CC4)c12 [Example 69, 5-ethynyl-6-fluoro-4-((5aR,6S,9R)-1-fluoro-12-((1-((4-(trifluoromethyl)piperidin-1-yl)methyl)cyclopropyl)methoxy)-4,5,5a,6,7,8,9,10-octahydro-3,10a,11,13,14-pentaaza-6,9-methanonaphtho[1,8-ab]heptalen-2-yl)naphthalen-2-ol] | 0.6 | 0.1 |
| Fc1ccc2ccccc2c1-c1nc2c3c(nc(OC[C@@]45CCCN4C[C@H](F)C5)nc3c1F)N1C[C@H]3CC[C@H](N3)[C@H]1CO2 [Example 48, (5aS,6S,9R)-1-fluoro-2-(2-fluoronaphthalen-1-yl)-12-(((2R,7aS)-2-fluorotetrahydro-1H-pyrrolizin-7a(5H)-yl)methoxy)-5a,6,7,8,9,10-hexahydro-5H-4-oxa-3,10a,11,13,14-pentaaza-6,9-methanonaphtho[1,8-ab]heptalene] | > 1000 | 2200 |
| C#Cc1c(F)ccc2cccc(-c3nc4c5c(nc(OC[C@@]67CCCN6C[C@H](F)C7)nc5c3F)N3C[C@H]5CC[C@H](N5)[C@@H]3[C@@H](CC)C4)c12 [Example 91, (5S,5aS,6S,9R)-5-ethyl-2-(8-ethynyl-7-fluoronaphthalen-1-yl)-1-fluoro-12-(((2R,7aS)-2-fluorotetrahydro-1H-pyrrolizin-7a(5H)-yl)methoxy)-4,5,5a,6,7,8,9,10-octahydro-3,10a,11,13,14-pentaaza-6,9-methanonaphtho[1,8-ab]heptalene] | 1000 | 100 |
| C#Cc1c(F)ccc2cc(O)cc(-c3nc4c5c(nc(OCC6(CN7CC[C@H](C(F)(F)F)C7)CC6)nc5c3F)N3C[C@H]5CC[C@H](N5)[C@H]3CO4)c12 [Example 44, 5-ethynyl-6-fluoro-4-((5aS,6S,9R)-1-fluoro-12-((1-(((S)-3-(trifluoromethyl)pyrrolidin-1-yl)methyl)cyclopropyl)methoxy)-5a,6,7,8,9,10-hexahydro-5H-4-oxa-3,10a,11,13,14-pentaaza-6,9-methanonaphtho[1,8-ab]heptalen-2-yl)naphthalen-2-ol] | 7 | 2 |
| C#Cc1c(F)ccc2cccc(-c3nc4c5c(nc(OC[C@@]67CCCN6C[C@H](F)C7)nc5c3F)N3C[C@H]5CC[C@H](N5)[C@H]3C[C@H]4CC)c12 [Example 182, (4R,5aR,6S,9R)-4-ethyl-2-(8-ethynyl-7-fluoronaphthalen-1-yl)-1-fluoro-12-(((2R,7aS)-2-fluorotetrahydro-1H-pyrrolizin-7a(5H)-yl)methoxy)-4,5,5a,6,7,8,9,10-octahydro-3,10a,11,13,14-pentaaza-6,9-methanonaphtho[1,8-ab]heptalene] | 87 | 0.4 |
| C=C(Cl)c1c(C)ccc2cc(O)cc(-c3nc4c5c(nc(OC[C@@]67CCCN6C[C@H](F)C7)nc5c3F)N3CC5CCC(N5)[C@H]3CO4)c12 (stereo in doubt) [Example 74, 5-(1-chlorovinyl)-4-((5aS,6R,9S)-1-fluoro-12-(((2R,7aS)-2-fluorotetrahydro-1H-pyrrolizin-7a(5H)-yl)methoxy)-5a,6,7,8,9,10-hexahydro-5H-4-oxa-3,10a,11,13,14-pentaaza-6,9-methanonaphtho[1,8-ab]heptalen-2-yl)-6-methylnaphthalen-2-ol] | 310 | 16 |
| Oc1cc(-c2nc3c4c(nc(OC[C@@]56CCCN5C[C@H](F)C6)nc4c2F)N2C[C@H]4CC[C@H](N4)[C@@H]2CO3)c2ccccc2c1 [Example 19, 4-((5aR,6S,9R)-1-fluoro-12-(((2R,7aS)-2-fluorotetrahydro-1H-pyrrolizin-7a(5H)-yl)methoxy)-5a,6,7,8,9,10-hexahydro-5H-4-oxa-3,10a,11,13,14-pentaaza-6,9-methanonaphtho[1,8-ab]heptalen-2-yl)naphthalen-2-ol] | 3300 | 590 |
| C#Cc1c(F)ccc2cc(O)cc(-c3nc4c5c(nc(OC[C@@]67CCCN6[C@H](COC(=O)N(C)c6cccc(S(F)(F)(F)(F)F)c6)CC7)nc5c3F)N3C[C@H]5CC[C@H](N5)[C@H]3CO4)c12 [Example 51, ((3S,7aS)-7a-((((5aS,6S,9R)-2-(8-ethynyl-7-fluoro-3-hydroxynaphthalen-1-yl)-1-fluoro-5a,6,7,8,9,10-hexahydro-5H-4-oxa-3,10a,11,13,14-pentaaza-6,9-methanonaphtho[1,8-ab]heptalen-12-yl)oxy)methyl)hexahydro-1H-pyrrolizin-3-yl)methyl methyl(3-(pentafluoro-λ^6-sulfaneyl)phenyl)carbamate] | 98 | 2 |
| C#Cc1c(F)ccc2cccc(-c3nc4c5c(nc(OCC6(CN7CCC(OC(F)(F)F)CC7)CC6)nc5c3F)N3C[C@H]5CC[C@H](N5)[C@H]3CCC4)c12 [Example 127, (6aR,7S,10R)-2-(8-ethynyl-7-fluoronaphthalen-1-yl)-1-fluoro-13-((1-((4-(trifluoromethoxy)piperidin-1-yl)methyl)cyclopropyl)methoxy)-5,6,6a,7,8,9,10,11-octahydro-4H-3,11a,12,14,15-pentaaza-7,10-methanocyclohepta[4,5]cycloocta[1,2,3-de]naphthalene] | 88.9 | 1.6 |
| C#Cc1c(F)ccc2cccc(-c3nc4c5c(nc(OC[C@]67CCCN6CC(OC(C(F)(F)F)(C(F)(F)F)C(F)(F)F)C7)nc5c3F)N3C[C@H]5CC[C@H](N5)[C@H]3CC4)c12 (stereo partly drawn) [Example 114, (5aR,6S,9R)-2-(8-ethynyl-7-fluoronaphthalen-1-yl)-1-fluoro-12-((trans-2-((1,1,1,3,3,3-hexafluoro-2-(trifluoromethyl)propan-2-yl)oxy)tetrahydro-1H-pyrrolizin-7a(5H)-yl)methoxy)-4,5,5a,6,7,8,9,1O-octahydro-3,10a,11,13,14-pentaaza-6,9-methanonaphtho[1,8-ab]heptalene] | 1000 | 125 |
| C#Cc1c(F)ccc2cc(O)cc(-c3nc4c5c(nc(OC[C@@]67CCCN6C[C@H](F)C7)nc5c3F)N3C[C@H]5CC[C@H](N5)[C@@H]3[C@@H](C)C4)c12 [Example 64, 5-ethynyl-6-fluoro-4-((5S,5aS,6S,9R)-1-fluoro-12-(((2R,7aS)-2-fluorotetrahydro-1H-pyrrolizin-7a(5H)-yl)methoxy)-5-methyl-4,5,5a,6,7,8,9,10-octahydro-3,10a,11,13,14-pentaaza-6,9-methanonaphtho[1,8-ab]heptalen-2-yl)naphthalen-2-ol] | 0.3 | 0.1 |
| C#Cc1c(F)ccc2cccc(-c3nc4c5c(nc(OC[C@@]67CCCN6[C@H](COc6cccc(S(F)(F)(F)(F)F)c6)CC7)nc5c3F)N3C[C@H]5CC[C@H](N5)[C@H]3CC4)c12 [Example 108, (5aR,6S,9R)-2-(8-ethynyl-7-fluoronaphthalen-1-yl)-1-fluoro-12-(((3S,7aS)-3-((3-(pentafluoro-λ^6-sulfaneyl)phenoxy)methyl)tetrahydro-1H-pyrrolizin-7a(5H)-yl)methoxy)-4,5,5a,6,7,8,9,10-octahydro-3,10a,11,13,14-pentaaza-6,9-methanonaphtho[1,8-ab]heptalene] | 450 | 1.5 |
| Oc1cc(-c2nc3c4c(nc(OC[C@@]56CCCN5C[C@H](F)C6)nc4c2F)N2C[C@H]4CC[C@H](N4)[C@H]2CO3)c2c(OC(F)(F)F)c(F)ccc2c1 [Example 7, 6-fluoro-4-((5aS,6S,9R)-1-fluoro-12-(((2R,7aS)-2-fluorotetrahydro-1H-pyrrolizin-7a(5H)-yl)methoxy)-5a,6,7,8,9,10-hexahydro-5H-4-oxa-3,10a,11,13,14-pentaaza-6,9-methanonaphtho[1,8-ab]heptalen-2-yl)-5-(trifluoromethoxy)naphthalen-2-ol] | 16 | 0.6 |
| C#Cc1c(F)ccc2cccc(-c3nc4c5c(nc(OC[C@@]67CCCN6C[C@H](F)C7)nc5c3F)N3C[C@H]5CC[C@H](N5)[C@@H]3[C@@H](C)CC4)c12 [Example 156, (6S,6aS,7S,10R)-2-(8-ethynyl-7-fluoronaphthalen-1-yl)-1-fluoro-13-(((2R,7aS)-2-fluorotetrahydro-1H-pyrrolizin-7a(5H)-yl)methoxy)-6-methyl-5,6,6a,7,8,9,10,11-octahydro-4H-3,11a,12,14,15-pentaaza-7,10-methanocyclohepta[4,5]cycloocta[1,2,3-de]naphthalene] | 100 | 100 |
| Fc1cc(-c2nc3c4c(nc(OC[C@@]56CCCN5C[C@H](F)C6)nc4c2F)N2C[C@H]4CC[C@H](N4)[C@H]2CO3)c2ccccc2c1 [Example 47, (5aS,6S,9R)-1-fluoro-2-(3-fluoronaphthalen-1-yl)-12-(((2R,7aS)-2-fluorotetrahydro-1H-pyrrolizin-7a(5H)-yl)methoxy)-5a,6,7,8,9,10-hexahydro-5H-4-oxa-3,10a,11,13,14-pentaaza-6,9-methanonaphtho[1,8-ab]heptalene] | > 1000 | 3400 |
